# In publication PMC8071544, “Synthesis and Bioactivities of Marine Pyran-Isoindolone Derivatives as Potential Antithrombotic Agents” (Marine Drugs, 2021):
# Key:
# [1] = target: T1, pro-uPA and plasminogen (Homo sapiens, UniProt P00747); assay: Fibrinolytic activity in vitro (reciprocal activation of pro-uPA and plasminogen, urokinase activity by chromogenic substrate S-2444); format: biochemical; settings: for EC50 (fibrinolytic activity): in vitro, slope of kinetic curve A405 nm, S-2444, mean of two independent experiments; for fibrinolytic activity (in words): compared with FGFC1
# T1 construct: purchased Sigma Aldrich (China)
# Procedure: To evaluate the antithrombotic effect, all the synthesized FGFC1 derivatives were tested for their fibrinolytic activities in vitro. Fibrinolytic activity of each compound was expressed as 50% effective concentration (EC50), and FGFC1 was used as a positive control. The reciprocal activation of pro-uPA catalyzed plasminogen, which was measured based on urokinase activity by a chromogenic substrate S-2444. EC50 was calculated with the slope of kinetic curve of enzymatic reaction based on the reciprocal activation of pro-uPA and plasminogen (Figure 1 and Figure 2). The effect of introducing different hydrophobic moieties/groups to C-2, C-2′ and C-1′′ positions of FGFC1 was investigated by replacement of the protons on C2-OH/C2′-OH moieties and C1′′-COOH position, with methyl, ethyl, propyl, and bromo-substituted benzyl halide groups to yield derivatives F1–F7 (purity > 98% by HPLC analysis), which presented different urokinase activities and reciprocal activation of Pro-uPA-catalyzed plasminogen in vitro.
# The fibrinolytic activities of compounds FGFC1 and derivatives F1–F7 were evaluated by plasmin method. Tris-HCl buffer solution (100 mmol/L, NaCl, pH 7.4), plasminogen (plg), BSA, and S-2444 were used as substrates. Derivatives F1–F7 dissolved in 0.05 mol/L Tris-HCl buffer containing NaCl (100 mmol/L) at pH 7.4 and the BSA used as a substrate.The concentrations of plg, BSA and S-2444 were 1.5 μmol/L, 5 μmol/L and 4 nmol/L, respectively. They were prepared in a 96-well microplate. After the predetermined sample solutions (compounds FGFC1 and F1–F7) were added, pro-uPA (20 μmol/L) was added into the 96-well microplate. The microplate was then cultivated at 37 °C for 60 min. The continuous variation trend of absorbance was determined for evaluation of fibrinolytic activity on the slope of the plots of A405 nm within 150 min. In the blank group, an equal volume of Tris-HCl solution was used as a blank control. All sample solutions were prepared by adding a small amount of DMSO (<5%, v/v) solution to dissolve the derivatives.
# [2] = system: HeLa cells; assay: MTT cytotoxicity assay on HeLa cells; format: cell-based, human; settings: 0.25, 0.5, 1.0 mg/mL, Figure 2A
# Procedure: (§1) The cytotoxicity of FGFC1 and derivative F6 on HeLa cell lines was screened by MTT assay. […] The introduction of substituted benzyl halide to the C-2, C-2′ and C-1″ position of FGFC1 decreased cytotoxicity, which increased with increasing concentration (0.25, 0.5, 1.0 mg/mL). Moreover, to evaluate the possible apoptosis of HeLa cells induced by F6, Fas/APO-1 (a type of cell-surface NGF/TNF receptor in cancer cell) assay was carried out (Figure 2B). To evaluate the immunogenic (inflammation) property, interleukin (IL-1) levels of derivative F6 was also tested by the IL-1 assays (Figure 2C). […] This meant that the ability of F6 to induce apoptosis was weaker than that of FGFC1. […] According to Figure 2B and Figure 2C, the negative effect of F6 on tissue cell was weaker than that of FGFC1.
# HeLa (human cervical carcinoma) cells were incubated in medium (10% fetal bovine serum, 1% penicillin, 1% streptomycin) at 37 °C with 95% air and 5% CO2. Cells were passaged every 2–3 d and select exponential growth cells were used for further experiments.
# The cell growth inhibitory activity of FGFC1 and derivative F6 on HeLa cell lines were determined by the MTT (3-(4,5-dimethylthiazol-2yl)-2,5-diphenyl tetrazolium bromide) assay as we previously reported. In addition, an equal volume of DMEM medium was added to the blank group.
# [3] = system: Fas/Apo-1; assay: Fas/Apo-1 ELISA assay on HeLa cells; format: cell-based, human; settings: Figure 2B, compared with blank and FGFC1
# Procedure: as §1
# Fas/Apo-1 assay was carried out according to the manufacturer’s protocol. A blank control group was set up. It was not added with the samples (FGFC1 and derivative F6) and the enzyme standard reagent, and the other steps were the same. The standard curve group and the sample group were tested. On the 96-well plate, the standard curve group was supplemented with 50 μL of the standard. […] After the addition of stop solution to reaction wells, the absorbance was recorded at OD 450 nm on an Enzyme-Labeled (microplate reader) Instrument after 15 min.
# [4] = system: IL-1; assay: IL-1 ELISA assay on HeLa cells; format: cell-based, human; settings: Figure 2C, compared with blank and FGFC1
# Procedure: as §1
# The cell culture method on the 96-well plate is in accordance with that in the MTT assay. The Elisa kit assay based on IL-1 of HeLa cells was consistent with the Fas/Apo-1 Elisa kit assay.
# T1 sequence (P00747 20-810 limits assumed): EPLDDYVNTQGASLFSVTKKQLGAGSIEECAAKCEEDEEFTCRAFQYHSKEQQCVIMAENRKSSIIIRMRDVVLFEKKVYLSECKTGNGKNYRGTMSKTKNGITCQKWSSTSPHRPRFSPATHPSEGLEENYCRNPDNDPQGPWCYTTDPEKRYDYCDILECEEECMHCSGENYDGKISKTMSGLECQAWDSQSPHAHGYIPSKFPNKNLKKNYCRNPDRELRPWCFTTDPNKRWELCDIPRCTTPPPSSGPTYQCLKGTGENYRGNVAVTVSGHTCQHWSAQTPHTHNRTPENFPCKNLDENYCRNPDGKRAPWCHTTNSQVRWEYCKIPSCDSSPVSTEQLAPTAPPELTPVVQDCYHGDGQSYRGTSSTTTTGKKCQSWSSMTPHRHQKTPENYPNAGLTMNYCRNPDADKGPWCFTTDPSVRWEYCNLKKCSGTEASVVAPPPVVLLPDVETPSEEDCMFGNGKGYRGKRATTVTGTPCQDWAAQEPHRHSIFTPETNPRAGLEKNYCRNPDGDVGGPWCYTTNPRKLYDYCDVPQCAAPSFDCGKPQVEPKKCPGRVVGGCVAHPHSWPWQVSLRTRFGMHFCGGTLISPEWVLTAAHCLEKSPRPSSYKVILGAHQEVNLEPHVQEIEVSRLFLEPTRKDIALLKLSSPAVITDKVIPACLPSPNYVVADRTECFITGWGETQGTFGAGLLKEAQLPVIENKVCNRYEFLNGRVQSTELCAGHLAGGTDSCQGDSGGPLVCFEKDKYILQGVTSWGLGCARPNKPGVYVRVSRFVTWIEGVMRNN
Compound,EC50 (fibrinolytic activity) [1] [µM],further results
CC(C)=CCC/C(C)=C/CC[C@@]1(C)Oc2c(c(OCc3ccc(C#N)cc3)cc3c2CN(CCC[C@H](C(=O)OCc2ccc(C#N)cc2)N2Cc4c(cc(OCc5ccc(C#N)cc5)c5c4O[C@](C)(CC/C=C(\C)CCC=C(C)C)[C@H](O)C5)C2=O)C3=O)C[C@H]1O [F4],82.8,–
CC(C)=CCC/C(C)=C/CC[C@@]1(C)Oc2c(c(OCc3ccc(OC(F)(F)F)cc3)cc3c2CN(CCC[C@H](C(=O)OCc2ccc(OC(F)(F)F)cc2)N2Cc4c(cc(OCc5ccc(OC(F)(F)F)cc5)c5c4O[C@](C)(CC/C=C(\C)CCC=C(C)C)[C@H](O)C5)C2=O)C3=O)C[C@H]1O [F5],133.3,fibrinolytic activity (in words) [1]: markedly decreased the fibrinolytic activity
CCOC(=O)[C@@H](CCCN1Cc2c(cc(OCC)c3c2O[C@](C)(CC/C=C(\C)CCC=C(C)C)[C@H](O)C3)C1=O)N1Cc2c(cc(OCC)c3c2O[C@](C)(CC/C=C(\C)CCC=C(C)C)[C@H](O)C3)C1=O [F2],87.1,–
CCCOC(=O)[C@@H](CCCN1Cc2c(cc(OCCC)c3c2O[C@](C)(CC/C=C(\C)CCC=C(C)C)[C@H](O)C3)C1=O)N1Cc2c(cc(OCCC)c3c2O[C@](C)(CC/C=C(\C)CCC=C(C)C)[C@H](O)C3)C1=O [F3],66.6,–
COC(=O)[C@@H](CCCN1Cc2c(cc(OC)c3c2O[C@](C)(CC/C=C(\C)CCC=C(C)C)[C@H](O)C3)C1=O)N1Cc2c(cc(OC)c3c2O[C@](C)(CC/C=C(\C)CCC=C(C)C)[C@H](O)C3)C1=O [F1],59.7,–

# The next lines start with results.
EC50 (fibrinolytic activity) [1] [µM],Compound,further results
115.0,"CC(C)=CCC/C(C)=C/CC[C@@]1(C)Oc2c(c(O)cc3c2CN(CCC[C@H](C(=O)O)N2Cc4c(cc(O)c5c4O[C@](C)(CC/C=C(\C)CCC=C(C)C)[C@H](O)C5)C2=O)C3=O)C[C@H]1O [FGFC1, 2,5-Bis-[8-(4,8-dimethyl-nona-3,7-dienyl)-5,7-dihydroxy-8-methyl-3-keto-1,2,7,8-teraahydro-6H-pyran[a]isoindol-2-yl]-pentanoic acid, reference compound]",cytotoxicity on HeLa cell lines [2]: moderate cytotoxicity
42.3,CC(C)=CCC/C(C)=C/CC[C@@]1(C)Oc2c(c(OCc3ccc(Br)cc3)cc3c2CN(CCC[C@H](C(=O)OCc2ccc(Br)cc2)N2Cc4c(cc(OCc5ccc(Br)cc5)c5c4O[C@](C)(CC/C=C(\C)CCC=C(C)C)[C@H](O)C5)C2=O)C3=O)C[C@H]1O [F6],"cytotoxicity on HeLa cell lines [2]: moderate cytotoxicity; expression level of Fas [3]: remarkably higher than that of the blank, but it was less than that of FGFC1; fibrinolytic activity relative to FGFC1 ([1]; ratio of EC50 vs FGFC1): 2.72 fold; expression level of IL-1 [4]: obviously higher than that of blank, but it was less than that of FGFC1"
119.6,CC(C)=CCC/C(C)=C/CC[C@@]1(C)Oc2c(c(OCc3ccccc3Br)cc3c2CN(CCC[C@H](C(=O)OCc2ccccc2Br)N2Cc4c(cc(OCc5ccccc5Br)c5c4O[C@](C)(CC/C=C(\C)CCC=C(C)C)[C@H](O)C5)C2=O)C3=O)C[C@H]1O [F7],fibrinolytic activity (in words) [1]: retained fibrinolytic activity
